Measured values: the METLIN SMRT retention time set (Domingo-Almenara et al. 2019)

Test: gradient 5% acetonitrile 3 min, to 50% in 2 min, to 85% in 15 min, held 3 min, 100 µL/min
Details: column: Zorbax Extend-C18 2.1 x 50 mm; eluents: water / acetonitrile, 0.1% formic acid
How it was run: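 Retention time was recorded from adduct peaks, which were picked computationally and each inspected manually. Pure standards ran in mixtures of ~100 molecules on HPLC coupled to a quadrupole time-of-flight mass spectrometer, in positive and negative ionization mode, through a Zorbax Extend-C18 column (2.1 × 50 mm, 1.8 μm) at 100 μL/min. Eluents were water and acetonitrile, each with 0.1% formic acid.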

CO[C@H]1C(=O)N(C(C)C)[C@H]1C1CCN(C(=O)c2sc(C)nc2C)CC1
RP-LC retention time: 650 s

Cc1cc(NC(=O)N(C)Cc2nc3cc(C(=O)N(C)C)ccc3n2C)ccc1Br
RP-LC retention time: 662 s

Fc1ccc(C(c2nnc(-c3ccccc3)o2)N2CCN(c3ccccn3)CC2)c(Cl)c1 (centres undefined)
RP-LC retention time: 978 s

Cc1noc(C2CN(C(=O)c3ccc4ncsc4c3)C2)n1
RP-LC retention time: 593 s

CCCN(CC1CCOC1)S(=O)(=O)c1ccc(OC)c(Cl)c1 (centres undefined)
RP-LC retention time: 936 s

Cc1nnc(N2CCCC(C(=O)NCCC(C)C)C2)c2nn(-c3ccc(Cl)cc3)c(C)c12 (centres undefined)
RP-LC retention time: 783 s

O=C(CN1C(=O)CSc2ccc(C(=O)N3CCCC3)cc21)N1CCN(c2ncccn2)CC1
RP-LC retention time: 661 s

Cc1ccc(NC(=O)Nc2c(-c3ccncc3)nc3ccccn23)cc1F
RP-LC retention time: 630 s

CCNc1cc(N2CCC(CCC(=O)N3CCN(C(C)C)CC3)CC2)ncn1
RP-LC retention time: 524 s

CCn1nccc1C(=O)Nc1cccc(-c2nnc3n2CCCC3)c1
RP-LC retention time: 644 s

Cc1ccc(C)c(NC(=O)N2CCC(c3cc(N)on3)CC2)c1
RP-LC retention time: 698 s

Nc1nc(N2CCN(c3ccccn3)CC2)ncc1C(=O)NCc1ccccc1
RP-LC retention time: 592 s

COCC(=O)NC(Cc1ccccc1)c1nc2ccccc2n1Cc1ccccc1F (centres undefined)
RP-LC retention time: 769 s

CC(C)N1C(=O)c2cccnc2Sc2cc(NC(=O)c3ccc(F)cc3Cl)ccc21
RP-LC retention time: 916 s

COc1ccc(-c2nc(-c3cccc(-c4ccn[nH]4)c3)no2)cc1F
RP-LC retention time: 978 s

COCc1noc([C@@H]2CN(C(=O)c3ccc(Cl)s3)C[C@H]2C(N)=O)n1
RP-LC retention time: 676 s

COc1ccc(OCC(=O)N2CCc3c(c(C(=O)N4CCCC(C(=O)NC5CC5)C4)nn3C)C2)cc1 (centres undefined)
RP-LC retention time: 657 s

C=CCn1c(=O)c(=O)n(Cc2ccc(C(=O)N3CCN(c4ccccn4)CC3)cc2)c2ccccc21
RP-LC retention time: 626 s

Cc1cccc(CN2CCN(C3CCN(C(=O)Nc4ccc5c(c4)OCCO5)CC3)C2=O)c1
RP-LC retention time: 804 s

CCC(C)NC(=O)c1ccc2ncnc(N3CCCCC3)c2c1 (centres undefined)
RP-LC retention time: 618 s

O=C(NCc1ccccn1)c1c(OCC2CC2)cc(=O)n2c1CCCCC2
RP-LC retention time: 586 s

O=C(Nc1ccc2c(c1)OCCO2)N1CCC(OCCOc2ccccc2)CC1
RP-LC retention time: 891 s

O=C(Cc1ccc(F)cc1)N1CCN(c2cc(-c3cccs3)[nH]n2)CC1
RP-LC retention time: 782 s

Cc1ccc(S(=O)(=O)N2CCc3c(c(-c4nnc(-c5ccccc5F)o4)nn3C)C2)cc1C
RP-LC retention time: 988 s

COc1cccc(CNC(=O)C2CCCN(c3nccnc3Sc3ccccc3)C2)c1 (centres undefined)
RP-LC retention time: 1100 s

COc1ccc(NC(=O)c2cc(S(=O)(=O)N3CCCC(C)C3)cn2C)c(OC)c1 (centres undefined)
RP-LC retention time: 1010 s

CC1CCCN(CCCNC(=O)CCC(=O)N2CCc3c(c(C(=O)N4CCCCC4)nn3C)C2)C1 (centres undefined)
RP-LC retention time: 594 s

CN1CCN(CCNC(=O)C2CCN(c3nc4cccnc4s3)CC2)CC1
RP-LC retention time: 555 s

COc1ccc(-c2nc(C3CC(=O)N(c4ccccc4)C3)no2)cc1 (centres undefined)
RP-LC retention time: 971 s

COc1cccc(C(O)CN2CCN(c3cccc(C)c3)CC2)c1 (centres undefined)
RP-LC retention time: 663 s

Cc1ccc2nc(-c3ccccc3)c(Nc3ccc(Cl)cc3)n2c1
RP-LC retention time: 755 s

O=C(NCCN1CCOCC1)C1CCN(S(=O)(=O)c2ccc(-c3noc(C4CC4)n3)cc2)CC1
RP-LC retention time: 642 s

COc1ccc(CNC(=O)c2ccc(CN3CC(=O)N4CCCCC4C3=O)cc2)cc1 (centres undefined)
RP-LC retention time: 683 s

O=C(NCC1CCCO1)N1CCCn2nc(-c3cccc(Cl)c3)cc2C1 (centres undefined)
RP-LC retention time: 792 s

CCCOc1nn(CCC)cc1C(=O)N1CCCC1
RP-LC retention time: 700 s

COCCCNC(=O)CN1C(=O)CC(c2ccc(Br)s2)=Nc2ccccc21
RP-LC retention time: 849 s

Cc1nc(OCC(=O)Nc2c(C)cccc2C)c2ccccc2n1
RP-LC retention time: 756 s

Cc1nc2c(sc3cccc(F)c32)c(=O)n1CC(=O)Nc1ccccc1C(F)(F)F
RP-LC retention time: 841 s

CCN(CC)c1ccc(Nc2nc(-c3ccc(Cl)cc3)cs2)cc1
RP-LC retention time: 791 s

CC(C)CC(=O)N1CCCC(c2nc(CNC(=O)C(C)C)cs2)C1 (centres undefined)
RP-LC retention time: 705 s

O=C(Nc1ccc2nncn2c1)Nc1ccc(F)cc1F
RP-LC retention time: 680 s

CC(C)NC(=O)c1cc(N2CCCC2)n2nccc2n1
RP-LC retention time: 784 s

Cc1nn(CC(=O)NCCN(C)C2CCCCC2)c(=O)c2c(C)n(-c3ccccc3)nc12
RP-LC retention time: 653 s

O=C(NC1CCCCCC1)C1CCN(S(=O)(=O)c2cc(-c3noc(C4CC4)n3)cs2)CC1
RP-LC retention time: 1040 s

COc1ccccc1-c1nnc(SCc2cccc(C(F)(F)F)c2)o1
RP-LC retention time: 991 s

CC(C)(C)C(=O)Nc1ccc(N2CCN(CC(=O)N3CCCC3)CC2)cc1C(=O)O
RP-LC retention time: 573 s

O=C1CC[C@@]2(O)C3Cc4ccc(O)c5c4C2(CCN3CC2CC2)[C@H]1O5 (some centres undefined)
RP-LC retention time: 599 s

O=C1CN(S(=O)(=O)c2ccccc2C(F)(F)F)CC2(CCCCC2)N1C1CCCC1
RP-LC retention time: 1230 s

CCc1ccc(C2=C(C)C(N3CCCN(C(=O)Cn4ccnc4)CC3)=NS2(=O)=O)cc1
RP-LC retention time: 642 s

Cc1cc(N2CCCCC2)nc(NCCNS(=O)(=O)N(C)C)n1
RP-LC retention time: 570 s

O=C(Cc1csc(-c2ccccc2F)n1)NCCc1c[nH]c2ccc(F)cc12
RP-LC retention time: 908 s

Cc1ccc(CNC(=O)c2ccc3ncnc(N4CCCC4)c3c2)o1
RP-LC retention time: 617 s

COc1ccc(-c2nnc(-c3cccnc3NCc3ccc(OC)c(OC)c3)o2)cc1
RP-LC retention time: 1060 s

O=C(Nc1ccc(F)cc1F)c1ccc(Br)cc1F
RP-LC retention time: 969 s

COc1cc(CN(C)C2CCc3nnc(C4CCOCC4)n3CC2)cc(OC)c1 (centres undefined)
RP-LC retention time: 544 s

O=C(C1CCN(c2nc3cccnc3s2)CC1)N1CCCCC1
RP-LC retention time: 713 s

CCn1cc(-c2ccc(C)cc2)cc1C(=O)NCc1cccnc1
RP-LC retention time: 713 s

CCc1ccc(OCC(=O)Nc2nnc(SCc3nnc(-c4ccccc4)o3)s2)cc1
RP-LC retention time: 1010 s

COc1ccc(-c2nn(-c3ccccc3)cc2C#N)cc1[N+](=O)[O-]
RP-LC retention time: 1010 s

O=C(Nc1cccc(Br)c1)C1CCN(C(=O)c2cc(-c3ccncc3)n[nH]2)CC1
RP-LC retention time: 640 s

O=C(Cc1ccccc1F)NCC(=O)Nc1nc2ccccc2[nH]1
RP-LC retention time: 632 s

O=C(Cn1nc(N2CCCC2)c2ccccc2c1=O)Nc1ccc(F)c(Cl)c1
RP-LC retention time: 1000 s

Cc1cc(C)n(CC(C)C(=O)Nc2ccc(Br)cc2)n1 (centres undefined)
RP-LC retention time: 800 s

CC(=O)N1c2ccc(S(=O)(=O)N3CCCCC3)cc2CC1C(=O)NC1CCCC1 (centres undefined)
RP-LC retention time: 830 s

COc1ccc(-c2nnc3n2CCN(Cc2cccc(C#N)c2)C3)cc1
RP-LC retention time: 667 s

Cc1ccc(CNC(=O)C2CCN(C(=O)c3cc(-c4ccncc4)n[nH]3)CC2)o1
RP-LC retention time: 586 s

CCN1CCN(c2nc(F)c(F)c(S(=O)(=O)CCNc3cccc(C(F)(F)F)c3)c2F)CC1
RP-LC retention time: 731 s

COc1ccc(N2CC(c3nc(-c4ccc5c(c4)OCO5)no3)CC2=O)cc1OC (centres undefined)
RP-LC retention time: 824 s

O=C1CC(c2cccc(F)c2)c2c(c(C(=O)O)cn2-c2ccc(F)cc2)N1 (centres undefined)
RP-LC retention time: 774 s

COc1nc2ccccc2nc1N1CCCC(C(=O)Nc2ccc(Br)cc2)C1 (centres undefined)
RP-LC retention time: 1250 s

Cc1ccc(Cl)cc1NC(=O)CN1CCN(c2ccc(F)cc2)CC1
RP-LC retention time: 658 s

CCOc1ccc(CN2CCc3nc(N4CCOCC4)ncc3C2)cc1OCC
RP-LC retention time: 577 s

COc1ccc(C(=O)Nc2nc(-c3ccc4c(c3)NC(=O)CO4)cs2)cc1OC
RP-LC retention time: 801 s

COCc1nc2cccnc2n1C1CCN(C(=O)Nc2cc(Cl)c(OC)cc2OC)CC1
RP-LC retention time: 723 s

Cc1cccc(NC(=O)N2CCC3(CC2)NC(=O)c2cc(F)ccc2N3C)c1
RP-LC retention time: 748 s

CC1(C)Cc2cccc(OCC(=O)N3CCN(Cc4nnnn4-c4ccccc4)CC3)c2O1
RP-LC retention time: 811 s

COc1ccc(CNC(=O)C2=C3CCCN3c3ccc(F)cc3S2(=O)=O)cc1
RP-LC retention time: 876 s

CCOc1ccc(S(=O)(=O)N2CCCC(C(=O)NCc3ccccc3)C2)cc1 (centres undefined)
RP-LC retention time: 878 s

O=C(Nc1ccc(N2CCN(c3ccccc3)C2=O)nc1)c1ccccc1
RP-LC retention time: 906 s

CCN1CCn2cc(S(=O)(=O)Nc3ccc(C)cc3C)cc2C1=O
RP-LC retention time: 746 s

Cc1sc2ccn(C)c(=O)c2c1C(=O)N1CCCCCC1
RP-LC retention time: 705 s

Clc1ccc(Nc2nc(-c3ccncc3)nc3ccccc23)cc1
RP-LC retention time: 848 s

O=C(c1ccccc1F)N1CCN(c2nc(-c3ccc(Cl)cc3)no2)CC1
RP-LC retention time: 1040 s

Cc1ccc(C2Cn3nnc(-c4nc(-c5ccccc5Cl)no4)c3CO2)c(C)c1 (centres undefined)
RP-LC retention time: 1290 s

Cc1cccc(NC(=O)C2CCN(S(=O)(=O)c3cn(C(C)C)cn3)CC2)n1
RP-LC retention time: 632 s

CC1CCN(CCCNC(=O)C2(O)c3ccccc3NC(=O)N2c2ccc(Cl)cc2)CC1 (centres undefined)
RP-LC retention time: 582 s

CCOC(=O)C1CCCN(C(=O)CCC(=O)N2CCCn3nc(C)cc32)C1 (centres undefined)
RP-LC retention time: 647 s

O=C(Nc1cccnc1OC1CCNCC1)C1(c2ccccc2)CC1
RP-LC retention time: 646 s

O=C(NCc1ccc(F)cc1)C1CCc2nc(N3CCOCC3)ncc2C1 (centres undefined)
RP-LC retention time: 808 s
